Earlier results, collected in US20110275591A1, “COCKTAIL FOR MODULATION OF ALZHEIMER'S DISEASE” (Concourse Health Sciences LLC, priority 2004, published 2011).

What was measured:
SAMP8 mouse = conditions: for cognition in T-maze footshock avoidance paradigm and lever press appetitive task: chronic administration
[1] = system: primary neurons of rat cerebral cortex; conditions: MTT and propidium iodide assays
[2] = system: children with autistic spectrum disorders; conditions: 8-week study; all p<0.05
[3] = system: patients with probable AD; conditions: after 3 and 6 months of treatment; significant differences only for a subset of cognitive tasks
[4] = system: Alzheimer transgenic mice; conditions: dietary curcumin
[5] = system: cultured hippocampal neurons
[6] = co-treatment during 48-hour Aβ exposure, vs controls with no EGCG

Compound: O=C(O)CCCCC1CCSS1 (stereo not drawn) [ALA, Alpha lipoic acid]
- indexes of oxidative stress (protein carbonyls, TBARS, W/S ratio of MAL-6) (SAMP8 mouse; 12-month-old SAMP8 mice): reversed all three indexes of oxidative stress
- cognition in T-maze footshock avoidance paradigm and lever press appetitive task (SAMP8 mouse; 12-month-old SAMP8 mice): improved cognition
- protection against cytotoxicity induced by Aβ peptide ([1]; Aβ peptide 30 microM): protected cortical neurons against cytotoxicity
- protection against cytotoxicity induced by H2O2 ([1]; H2O2 100 microM): protected cortical neurons against cytotoxicity

Compound: NCCC(=O)N[C@@H](Cc1cnc[nH]1)C(=O)O [L-carnosine, b-alanyl-L-histidine]
- Gilliam Autism Rating Scale and Receptive One-Word Picture Vocabulary test [2]: statistically significant improvements

Compound: CC(=O)N[C@@H](CS)C(=O)O [NAC, N-Acetylcysteine, reference compound]
- cognition in T-maze footshock avoidance paradigm and lever press appetitive task (SAMP8 mouse; 12-month-old SAMP8 mice): improved cognition
- blood-brain barrier passage (SAMP8 mouse; SAMP8 mice): crossed the blood-brain barrier and accumulated in the brain
- efficacy outcome measures (cognitive tasks) [3]: beneficial results on nearly every outcome measure

Compound: COc1cc(/C=C/C(=O)CC(=O)/C=C/c2ccc(O)c(OC)c2)ccc1O [curcumin, Curcumin]
- lipid peroxidation products (indicators of oxidative stress) (diabetic rats; curcumin fed rats): significant reduction
- accumulation of advanced glycation endproducts (diabetic rats; dietary curcumin 200 mg/kg body weight, vs control diabetic rats without curcumin): prevents the accumulation
- levels of interleukin-1 beta [4]: decreased levels
- levels of oxidized proteins [4]: decreased levels
- microgliosis [4]: suppression

Compound: Epigallocatechin-3-gallate [EGCG]
- cell survival ([5]; Aβ-exposed neurons, vs controls): increased survival
- levels of caspase C [5, 6]: decreased
- levels of malondiadehyde [5, 6]: decreased
